Experimental data published in PubChem BioAssay AID248 (DTP/NCI, 2004).
Toxic doses and inconclusive results are not listed. No stated cut-off is given here; in the data, active means T/C of 150% or more; inactive means T/C below 125%.

Tested on: L1210 leukemia ip in BDF1 mice, survival T/C
Test: NCI In Vivo Anticancer Drug Screen. Data for tumor model L1210 Leukemia (intraperitoneal) in B6D2F1 (BDF1) mice
Conditions: endpoint: mean survival time, higher = longer survival
Outline: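 Transplantable tumor model; survival measured in treated vs vehicle control mice. Value = treated/control.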

[1] = dose: 100.0 mg/kg/injection, schedule: Q01DX009 (ip), vehicle: Klucel (hydroxypropylcellulose) (HPC)
[2] = dose: 200.0 mg/kg/injection, schedule: Q01DX009 (ip), vehicle: Klucel (hydroxypropylcellulose) (HPC)
[3] = dose: 100.0 mg/kg/injection, schedule: Q04DX003 (ip), vehicle: Klucel (hydroxypropylcellulose) (HPC)
[4] = dose: 200.0 mg/kg/injection, schedule: Q04DX003 (ip), vehicle: Klucel (hydroxypropylcellulose) (HPC)
[5] = dose: 400.0 mg/kg/injection, schedule: Q01DX009 (ip), vehicle: Klucel (hydroxypropylcellulose) (HPC)
[6] = dose: 400.0 mg/kg/injection, schedule: Q04DX003 (ip), vehicle: Klucel (hydroxypropylcellulose) (HPC)
[7] = dose: 100.0 mg/kg/injection, schedule: Q01DX009 (ip), vehicle: saline with Tween-80
[8] = dose: 100.0 mg/kg/injection, schedule: Q04DX003 (ip), vehicle: saline with Tween-80
[9] = dose: 200.0 mg/kg/injection, schedule: Q01DX009 (ip), vehicle: saline with Tween-80
[10] = dose: 200.0 mg/kg/injection, schedule: Q04DX003 (ip), vehicle: saline with Tween-80
[11] = dose: 400.0 mg/kg/injection, schedule: Q04DX003 (ip), vehicle: saline with Tween-80
[12] = dose: 100.0 mg/kg/injection, schedule: Q01DX001 (ip), vehicle: saline with Tween-80
[13] = dose: 200.0 mg/kg/injection, schedule: Q01DX001 (ip), vehicle: saline with Tween-80
[14] = dose: 400.0 mg/kg/injection, schedule: Q01DX001 (ip), vehicle: saline with Tween-80
[15] = dose: 400.0 mg/kg/injection, schedule: Q01DX009 (ip), vehicle: saline with Tween-80
[16] = dose: 100.0 mg/kg/injection, schedule: Q04DX003 (ip), vehicle: saline
[17] = dose: 200.0 mg/kg/injection, schedule: Q04DX003 (ip), vehicle: saline
[18] = dose: 400.0 mg/kg/injection, schedule: Q04DX003 (ip), vehicle: saline

Measured: T/C

CCOC(=O)c1c[nH]c2c(Cl)cc(Cl)cc2c1=O
inactive: dose: 100.0 mg/kg/injection, schedule: Q01DX001 (ip), vehicle: other 104 % of control | dose: 200.0 mg/kg/injection, schedule: Q01DX001 (ip), vehicle: other 95 % of control | dose: 400.0 mg/kg/injection, schedule: Q01DX001 (ip), vehicle: other 101 % of control

CCc1ccccc1NC(=O)NCc1ccco1
inactive: [1] 101 % of control | [2] 92 % of control

CCc1ccccc1NC(=O)Nc1ccccc1OC
inactive: [1] 92 % of control | [3] 93 % of control | [2] 94 % of control | [4] 93 % of control | [5] 100 % of control | [6] 90 % of control

CC(C)(c1cc(Br)c(O)c(Br)c1)c1cc(Br)c(O)c(Br)c1
inactive: [1] 93 % of control | [3] 100 % of control | [2] 94 % of control | [4] 92 % of control | [5] 91 % of control | [6] 103 % of control

O=C(NS(=O)(=O)c1ccc(Cl)cc1)c1cccc2ccccc12
inactive: [7] 91 % of control

N#Cc1ccc(OCCCCOc2ccc([N+](=O)[O-])cc2Cl)cc1
inactive: [1] 91 % of control | [2] 95 % of control | [5] 101 % of control

Cc1ccc(C(=O)C(Br)C(Br)c2ccccc2)cc1 (configuration not stated)
inactive: [1] 89 % of control | [7] 90 % of control | [8] 92 % of control | [2] 89 % of control | [9] 89 % of control | [10] 89 % of control | [5] 96 % of control | [11] 95 % of control

COc1ccc(OC)c(NC(=O)c2c(Br)c(Br)c(Br)c(Br)c2C(=O)O)c1
inactive: [1] 109 % of control | [2] 97 % of control

COC(=O)c1ccc(=O)oc1
inactive: dose: 50.0 mg/kg/injection, schedule: Q01DX009 (ip), vehicle: gum acacia 105 % of control | dose: 100.0 mg/kg/injection, schedule: Q01DX009 (ip), vehicle: gum acacia 100 % of control | dose: 100.0 mg/kg/injection, schedule: Q04DX003 (ip), vehicle: gum acacia 98 % of control | dose: 200.0 mg/kg/injection, schedule: Q01DX009 (ip), vehicle: gum acacia 88 % of control | dose: 200.0 mg/kg/injection, schedule: Q04DX003 (ip), vehicle: gum acacia 100 % of control

Cc1cc2c(cc1C)C(=O)CCC2
inactive: [12] 97 % of control | [7] 109 % of control | dose: 100.0 mg/kg/injection, schedule: Q04DX002 (ip), vehicle: saline with Tween-80 88 % of control | [8] 97 % of control | [13] 97 % of control | [9] 109 % of control | dose: 200.0 mg/kg/injection, schedule: Q04DX002 (ip), vehicle: saline with Tween-80 90 % of control | [10] 98 % of control | [14] 91 % of control | [15] 115 % of control | dose: 400.0 mg/kg/injection, schedule: Q04DX002 (ip), vehicle: saline with Tween-80 90 % of control | [11] 95 % of control

C(#CCN1CCOCC1)CCCN1CCOCC1
inactive: [16] 96 % of control | [17] 95 % of control | [18] 93 % of control

CCCCCCCCCCCCCCBr
inactive: dose: 37.5 mg/kg/injection, schedule: Q01DX Z (ip), vehicle: carboxymethylcellulose (CMC) 100 % of control | dose: 75.0 mg/kg/injection, schedule: Q01DX Z (ip), vehicle: carboxymethylcellulose (CMC) 100 % of control | dose: 100.0 mg/kg/injection, schedule: Q01DX001 (ip), vehicle: Klucel (hydroxypropylcellulose) (HPC) 107 % of control | dose: 150.0 mg/kg/injection, schedule: Q01DX Z (ip), vehicle: carboxymethylcellulose (CMC) 100 % of control | dose: 200.0 mg/kg/injection, schedule: Q01DX001 (ip), vehicle: Klucel (hydroxypropylcellulose) (HPC) 98 % of control | dose: 300.0 mg/kg/injection, schedule: Q01DX Z (ip), vehicle: carboxymethylcellulose (CMC) 91 % of control | dose: 400.0 mg/kg/injection, schedule: Q01DX001 (ip), vehicle: Klucel (hydroxypropylcellulose) (HPC) 94 % of control

Nc1ncc(CNc2ccc(C(=O)NC(CC(=O)O)C(=O)O)cc2)c(N)n1 (configuration not stated)
inactive: [12] 93 % of control | [7] 106 % of control | [8] 93 % of control | [13] 105 % of control | [9] 100 % of control | [10] 97 % of control | [14] 100 % of control | [15] 105 % of control | [11] 98 % of control

NC(=O)N/N=C1\CC2CC1C1CCCC21 (configuration not stated)
inactive: dose: 100.0 mg/kg/injection, schedule: Q04DX003 (ip), vehicle: other 104 % of control | dose: 200.0 mg/kg/injection, schedule: Q04DX003 (ip), vehicle: other 98 % of control | dose: 400.0 mg/kg/injection, schedule: Q04DX003 (ip), vehicle: other 94 % of control

C=CC1CCN(CCn2cc(C)c(=O)[nH]c2=O)CC1
inactive: [8] 101 % of control | [10] 107 % of control | [11] 101 % of control

O=CN(Cc1cnccn1)Cc1cnccn1
inactive: dose: 100.0 mg/kg/injection, schedule: Q01DX009 (ip), vehicle: saline 96 % of control | [16] 93 % of control | dose: 200.0 mg/kg/injection, schedule: Q01DX009 (ip), vehicle: saline 98 % of control | [17] 96 % of control | dose: 400.0 mg/kg/injection, schedule: Q01DX009 (ip), vehicle: saline 94 % of control | [18] 96 % of control

Clc1ccc2c(CBr)ccnc2c1
inactive: dose: 100.0 mg/kg/injection, schedule: Q01DX001 (ip), vehicle: saline 98 % of control | dose: 200.0 mg/kg/injection, schedule: Q01DX001 (ip), vehicle: saline 104 % of control

O=C1C(Br)=CC(=NCl)C=C1Br
inactive: dose: 6.25 mg/kg/injection, schedule: Q01DX009 (ip), vehicle: DMSO 87 % of control | dose: 12.5 mg/kg/injection, schedule: Q01DX009 (ip), vehicle: DMSO 94 % of control | dose: 12.5 mg/kg/injection, schedule: Q04DX002 (ip), vehicle: DMSO 103 % of control | dose: 25.0 mg/kg/injection, schedule: Q04DX002 (ip), vehicle: DMSO 95 % of control

NC(=S)C(=S)NCCO
inactive: [7] 103 % of control | [8] 100 % of control | [9] 94 % of control | [10] 93 % of control | [15] 100 % of control | [11] 93 % of control

CCc1n[nH]c(=S)n1N
inactive: dose: 12.5 mg/kg/injection, schedule: Q04DX003 (ip), vehicle: Klucel (hydroxypropylcellulose) (HPC) 94 % of control | dose: 25.0 mg/kg/injection, schedule: Q04DX003 (ip), vehicle: Klucel (hydroxypropylcellulose) (HPC) 89 % of control | dose: 50.0 mg/kg/injection, schedule: Q04DX003 (ip), vehicle: Klucel (hydroxypropylcellulose) (HPC) 96 % of control

CC(=O)OC1CCC2(C)C(=CCC3C2CCC2(C)c4c(-c5ccccc5)nn(-c5ccccc5)c4CC32)C1 (configuration not stated)
inactive: dose: 12.5 mg/kg/injection, schedule: Q04DX002 (ip), vehicle: Klucel (hydroxypropylcellulose) (HPC) 96 % of control | dose: 25.0 mg/kg/injection, schedule: Q04DX002 (ip), vehicle: Klucel (hydroxypropylcellulose) (HPC) 96 % of control | dose: 50.0 mg/kg/injection, schedule: Q04DX002 (ip), vehicle: Klucel (hydroxypropylcellulose) (HPC) 101 % of control

CCOC(=O)/C=C\c1c(OC)nc2ccccn2c1=O (tested in a mixture with another compound)
inactive: [1] 101 % of control | [3] 94 % of control | [2] 100 % of control | [4] 92 % of control | [5] 101 % of control | [6] 95 % of control

O=C(O)c1c(Cl)c(Cl)c(Cl)c(Cl)c1C(=O)Nc1cccc(C(F)(F)F)c1
inactive: [1] 100 % of control | [3] 94 % of control | [2] 97 % of control | [4] 100 % of control | [6] 105 % of control

Fc1c(F)c(F)c(/C=N/Nc2nnc(N/N=C/c3c(F)c(F)c(F)c(F)c3F)c3ccccc23)c(F)c1F
inactive: dose: 50.0 mg/kg/injection, schedule: Q01DX001 (ip), vehicle: carboxymethylcellulose (CMC) 93 % of control | dose: 100.0 mg/kg/injection, schedule: Q01DX001 (ip), vehicle: carboxymethylcellulose (CMC) 95 % of control | dose: 200.0 mg/kg/injection, schedule: Q01DX001 (ip), vehicle: carboxymethylcellulose (CMC) 98 % of control | dose: 400.0 mg/kg/injection, schedule: Q01DX001 (ip), vehicle: carboxymethylcellulose (CMC) 95 % of control
